Reference: patent US20110287982A1, “CELL CULTURE DEVICE” (priority 2008, published 2011)

System: cardiac tissue generated from cardiomyocytes derived from human ESCs
Assay: Electrophysiological recordings of cardiac tissue (CardioSpot) on porous multi-electrode arrays
Format: cell-based
Conditions: for repolarising potential (delay measured from the first signal): 30 nM E4031, control 140 ms
Description: Beating aggregates are maintained at room temperature in cryo-vials full of culture medium (Human cardiovascular progenitor cells develop from a KDR+embryonic-stem-cell-derived population. Yang L, et al., (2008). […] Culture Medium-StemPro 34 and 10 ng/mL VEGF CardioSpot made using primary or stem cell derived cardiomyocytes are placed onto the porous MEAs. Electrophysiological recordings were performed either through the supporting membrane or from under the membrane in order to get a direct contact of the tissues with recording electrodes. Control recording were performed using the culture medium as well a the solution used for reference molecules ([…], and lidocaine) Pharmacological experiments were carried out using reference compounds to characterise and validate the cardiac tissue generated from cardiomyocytes derived from human ESCs and engineered using the method of invention.

| Compound | repolarising potential (delay measured from the first signal) (after 5 min) [ms] | repolarising potential (delay measured from the first signal) (after 15 min) [ms] | decrease of the amplitude of the electrophysiological signals (30 uM lidocaine, after 6 minutes) [%] | amplitude of the first signal (predominantly dependent of sodium channel opening) (lidocaine, within few minutes) |
| --- | --- | --- | --- | --- |
| Cc1cccc(CCN2CCC(C(=O)c3ccc(NS(C)(=O)=O)cc3)CC2)n1 [E4031] | 155 | 173 |  |  |
| CCN(CC)CC(=O)Nc1c(C)cccc1C [lidocaine] |  |  | 50 | dramatic decrease |
